Usually MIC stands for the lowest concentration found to suppress growth.

Among the data in PMC9853512 (RSC Advances, 2023) are MIC values, retold here.

Common to all, as to type: cell-based
Assay [1] concerns C. albicans strain ATCC14053. The assay is described as follows: MIC, two-fold microdilution assay, C. albicans. The conditions noted are these: Candida albicans, ATCC14053, 18 h, read-out: MIC C. Albicans ATCC14053. (In general: In broth dilution the organism is exposed to a series of concentrations in liquid medium.)
For assay [2], the system named is S. aureus strain ATCC 29213. The assay is described as follows: MIC, two-fold microdilution assay, S. aureus. The conditions noted are these: Staphylococcus aureus, ATCC29213, 18 h, read-out: MIC S. Aureus ATCC 29213.
For assay [3], the system named is E. coli strain ATCC 25922. The assay can be described thus: MIC, two-fold microdilution assay, E. coli. The conditions noted are these: Escherichia coli, ATCC25922, 18 h, read-out: MIC E. coli ATCC 25922.
The subject of assay [4] is H. pylori strain SS1. The assay can be described thus: MIC, two-fold microdilution assay, H. pylori. The settings on record: Helicobacter pylori, SS1, 48 h, read-out: MIC H. pylori SS1.

Values after ≈ are worked out from the molar mass of the structure shown.

With `O=C1OCCN1N=Cc1ccc([N+](=O)[O-])o1` [FZD, 3-(5-nitrofurfurylideneamino)-2-oxazolidinone], the MIC was greater than 50 µg/mL in assay [1], 3.12 µg/mL (≈ 13.9 µM) in assay [2], 0.391 µg/mL (≈ 1.73 µM) in assay [3] and less than 0.0976 µg/mL in assay [4].

For `O=C1CN(N=Cc2ccc([N+](=O)[O-])o2)C(=O)N1` [NFT, 1-(((5-nitro-2-furanyl)methylene)amino)-2,4-imidazolidinedione], the MIC was greater than 50 µg/mL in assay [1], 25 µg/mL (≈ 105 µM) in assay [2] and 12.5 µg/mL (≈ 52.5 µM) in assay [3].
